Assay results taken from patent US20230085307A1, “PYRIDAZINONE COMPOUND AND HERBICIDE” (NISSAN CHEMICAL CORPORATION, priority 2019, published 2023).

Legend:
[1] = test system: barnyard grass; assay: Test Example 4: herbicidal effect by soil treatment (Table 19, symbol H); format: in vivo, barnyard grass (Echinochloa crus-galli); conditions: amount of applied herbicide 320 g/ha
Summary of the method: (§1)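 Three weeks of greenhouse growth at 25° C. to 30° C. followed a uniform surface spray of water-diluted emulsion at a predetermined herbicide amount. Seeds had been sown beforehand under about 1.5 cm of sterilized diluvial soil. Grading followed criteria set out in an earlier test.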

[2] = test system: barnyard grass; assay: Test Example 3: herbicidal effect by foliage application, Wagner pot (Table 18, symbol H); format: in vivo, barnyard grass (Echinochloa crus-galli); conditions: 320 g/ha
Summary of the method: (§2)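 Plants were sown in alluvial soil held under 0.1–0.5 cm standing water and grown 14 days in a greenhouse at 25–30 °C. An emulsifiable formulation, water-diluted to the set dose, was then sprayed onto the foliage, and effects were scored three weeks later using previously defined criteria.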

[3] = test system: velvetleaf; assay: Test Example 5: herbicidal effect by foliage application, plastic box (Table 20, symbol M); format: in vivo, velvetleaf (Abutilon theophrasti); conditions: foliage application, 320 g/ha, three weeks after application
Summary of the method: (§3)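 Plants sown in sterilized diluvial soil and grown 14 days in a greenhouse at 25° C to 30° C, then sprayed on the foliage with the compound's emulsion diluted in water to a predetermined herbicide amount. Injury to weeds and crops scored three weeks after application on a visual rating scale.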

[4] = test system: Italian ryegrass; assay: Test Example 5: herbicidal effect by foliage application, plastic box (Table 20, symbol K); format: in vivo, Italian ryegrass (Lolium multiflorum); conditions: foliage application, 320 g/ha, three weeks after application
Summary of the method: as §3

[5] = test system: persian speedwell; assay: Test Example 4: herbicidal effect by soil treatment (Table 19, symbol R); format: in vivo, Persian speedwell (Veronica persica); conditions: amount of applied herbicide 320 g/ha
Summary of the method: as §1

[6] = test system: false cleavers; assay: Test Example 5: herbicidal effect by foliage application, plastic box (Table 20, symbol Q); format: in vivo, false cleavers (Galium spurium); conditions: foliage application, 320 g/ha, three weeks after application
Summary of the method: as §3

[7] = test system: chickweed; assay: Test Example 4: herbicidal effect by soil treatment (Table 19, symbol P); format: in vivo, common chickweed (Stellaria media); conditions: amount of applied herbicide 320 g/ha
Summary of the method: as §1

[8] = test system: southern crabgrass; assay: Test Example 5: herbicidal effect by foliage application, plastic box (Table 20, symbol F); format: in vivo, southern crabgrass (Digitaria ciliaris); conditions: foliage application, 320 g/ha, three weeks after application
Summary of the method: as §3

[9] = test system: blackgrass; assay: Test Example 4: herbicidal effect by soil treatment (Table 19, symbol J); format: in vivo, blackgrass (Alopecurus myosuroides); conditions: amount of applied herbicide 320 g/ha
Summary of the method: as §1

[10] = test system: barnyard grass; assay: Test Example 5: herbicidal effect by foliage application, plastic box (Table 20, symbol H); format: in vivo, barnyard grass (Echinochloa crus-galli); conditions: foliage application, 320 g/ha, three weeks after application
Summary of the method: as §3

[11] = test system: green foxtail; assay: Test Example 5: herbicidal effect by foliage application, plastic box (Table 20, symbol G); format: in vivo, green foxtail (Setaria viridis); conditions: foliage application, 320 g/ha, three weeks after application
Summary of the method: as §3

[12] = test system: wild oat; assay: Test Example 5: herbicidal effect by foliage application, plastic box (Table 20, symbol I); format: in vivo, wild oat (Avena fatua); conditions: foliage application, 320 g/ha, three weeks after application
Summary of the method: as §3

[13] = test system: persian speedwell; assay: Test Example 5: herbicidal effect by foliage application, plastic box (Table 20, symbol R); format: in vivo, Persian speedwell (Veronica persica); conditions: foliage application, 320 g/ha, three weeks after application
Summary of the method: as §3

[14] = test system: false cleavers; assay: Test Example 4: herbicidal effect by soil treatment (Table 19, symbol Q); format: in vivo, false cleavers (Galium spurium); conditions: amount of applied herbicide 320 g/ha
Summary of the method: as §1

[15] = test system: redroot pigweed; assay: Test Example 4: herbicidal effect by soil treatment (Table 19, symbol N); format: in vivo, redroot pigweed (Amaranthus retroflexus); conditions: amount of applied herbicide 320 g/ha
Summary of the method: as §1

[16] = test system: lambsquarters; assay: Test Example 4: herbicidal effect by soil treatment (Table 19, symbol O); format: in vivo, lambsquarters (Chenopodium album); conditions: amount of applied herbicide 320 g/ha
Summary of the method: as §1

[17] = test system: Italian ryegrass; assay: Test Example 4: herbicidal effect by soil treatment (Table 19, symbol K); format: in vivo, Italian ryegrass (Lolium multiflorum); conditions: amount of applied herbicide 320 g/ha
Summary of the method: as §1

[18] = test system: velvetleaf; assay: Test Example 4: herbicidal effect by soil treatment (Table 19, symbol M); format: in vivo, velvetleaf (Abutilon theophrasti); conditions: amount of applied herbicide 320 g/ha
Summary of the method: as §1

[19] = test system: wild oat; assay: Test Example 4: herbicidal effect by soil treatment (Table 19, symbol I); format: in vivo, wild oat (Avena fatua); conditions: amount of applied herbicide 320 g/ha
Summary of the method: as §1

[20] = test system: blackgrass; assay: Test Example 5: herbicidal effect by foliage application, plastic box (Table 20, symbol J); format: in vivo, blackgrass (Alopecurus myosuroides); conditions: foliage application, 320 g/ha, three weeks after application
Summary of the method: as §3

[21] = test system: green foxtail; assay: Test Example 4: herbicidal effect by soil treatment (Table 19, symbol G); format: in vivo, green foxtail (Setaria viridis); conditions: amount of applied herbicide 320 g/ha
Summary of the method: as §1

[22] = test system: southern crabgrass; assay: Test Example 4: herbicidal effect by soil treatment (Table 19, symbol F); format: in vivo, southern crabgrass (Digitaria ciliaris); conditions: amount of applied herbicide 320 g/ha
Summary of the method: as §1

[23] = test system: Chinese sprangletop; assay: Test Example 3: herbicidal effect by foliage application, Wagner pot (Table 18, symbol D); format: in vivo, chinese sprangletop (Leptochloa chinensis); conditions: 320 g/ha
Summary of the method: as §2

[24] = test system: rice flat sedge; assay: Test Example 3: herbicidal effect by foliage application, Wagner pot (Table 18, symbol E); format: in vivo, rice flat sedge (Cyperus iria); conditions: 320 g/ha
Summary of the method: as §2

[25] = test system: lambsquarters; assay: Test Example 5: herbicidal effect by foliage application, plastic box (Table 20, symbol O); format: in vivo, lambsquarters (Chenopodium album); conditions: foliage application, 320 g/ha, three weeks after application
Summary of the method: as §3

[26] = test system: windgrass; assay: Test Example 4: herbicidal effect by soil treatment (Table 19, symbol L); format: in vivo, windgrass (Apera spica-venti); conditions: amount of applied herbicide 320 g/ha
Summary of the method: as §1

[27] = test system: windgrass; assay: Test Example 5: herbicidal effect by foliage application, plastic box (Table 20, symbol L); format: in vivo, windgrass (Apera spica-venti); conditions: foliage application, 320 g/ha, three weeks after application
Summary of the method: as §3

[28] = test system: chickweed; assay: Test Example 5: herbicidal effect by foliage application, plastic box (Table 20, symbol P); format: in vivo, common chickweed (Stellaria media); conditions: foliage application, 320 g/ha, three weeks after application
Summary of the method: as §3

[29] = test system: redroot pigweed; assay: Test Example 5: herbicidal effect by foliage application, plastic box (Table 20, symbol N); format: in vivo, redroot pigweed (Amaranthus retroflexus); conditions: foliage application, 320 g/ha, three weeks after application
Summary of the method: as §3

COc1cc2sc(-c3ccc(F)cc3OC)c(-c3c(O)c(C)nn(C)c3=O)c2cc1OC [5-060]
H: barnyard grass, herbicidal effect grade [1]: 0 (Herbicidal rate of 5% or less (almost no effect)) | herbicidal effect on barnyard grass (H) [2]: 5 (Herbicidal rate of 90% or more (almost completely withered)) | herbicidal effect on velvetleaf (M) [3]: 0 (Herbicidal rate of 5% or less (almost no effect)) | herbicidal effect on Italian ryegrass (K) [4]: 3 (Herbicidal rate of 40% or more and less than 70%) | R: persian speedwell, herbicidal effect grade [5]: 3 (Herbicidal rate of 40% or more and less than 70%) | herbicidal effect on false cleavers (Q) [6]: 0 (Herbicidal rate of 5% or less (almost no effect)) | P: chickweed, herbicidal effect grade [7]: 5 (Herbicidal rate of 90% or more (almost completely withered)) | herbicidal effect on southern crabgrass (F) [8]: 3 (Herbicidal rate of 40% or more and less than 70%) | J: blackgrass, herbicidal effect grade [9]: 0 (Herbicidal rate of 5% or less (almost no effect)) | herbicidal effect on barnyard grass (H) [10]: 4 (Herbicidal rate of 70% or more and less than 90%) | herbicidal effect on green foxtail (G) [11]: 4 (Herbicidal rate of 70% or more and less than 90%) | herbicidal effect on wild oat (I) [12]: 4 (Herbicidal rate of 70% or more and less than 90%) | herbicidal effect on persian speedwell (R) [13]: 4 (Herbicidal rate of 70% or more and less than 90%) | Q: false cleavers, herbicidal effect grade [14]: 0 (Herbicidal rate of 5% or less (almost no effect)) | N: redroot pigweed, herbicidal effect grade [15]: 0 (Herbicidal rate of 5% or less (almost no effect)) | O: lambsquarters, herbicidal effect grade [16]: 0 (Herbicidal rate of 5% or less (almost no effect)) | K: Italian ryegrass, herbicidal effect grade [17]: 1 (Herbicidal rate of 5% or more and less than 20%) | M: velvetleaf, herbicidal effect grade [18]: 0 (Herbicidal rate of 5% or less (almost no effect)) | I: wild oat, herbicidal effect grade [19]: 0 (Herbicidal rate of 5% or less (almost no effect)) | herbicidal effect on blackgrass (J) [20]: 4 (Herbicidal rate of 70% or more and less than 90%) | G: green foxtail, herbicidal effect grade [21]: 0 (Herbicidal rate of 5% or less (almost no effect)) | F: southern crabgrass, herbicidal effect grade [22]: 0 (Herbicidal rate of 5% or less (almost no effect)) | herbicidal effect on Chinese sprangletop (D) [23]: 2 (Herbicidal rate of 20% or more and less than 40%) | herbicidal effect on rice flat sedge (E) [24]: 3 (Herbicidal rate of 40% or more and less than 70%) | herbicidal effect on lambsquarters (O) [25]: 3 (Herbicidal rate of 40% or more and less than 70%) | L: windgrass, herbicidal effect grade [26]: 1 (Herbicidal rate of 5% or more and less than 20%) | herbicidal effect on windgrass (L) [27]: 3 (Herbicidal rate of 40% or more and less than 70%)

Cc1nn(C)c(=O)c(-c2c(-c3ccccc3C(F)(F)F)sc3ccccc23)c1O [1-007]
herbicidal effect rating, H: barnyard grass [1]: 0 (Herbicidal rate of 5% or less (almost no effect)) | herbicidal effect on H (barnyard grass), rating 0-5 [2]: 5 (Herbicidal rate of 90% or more (almost completely withered)) | herbicidal effect grade, M: velvetleaf [3]: 5 (Herbicidal rate of 90% or more (almost completely withered)) | herbicidal effect grade, P: chickweed [28]: 5 (Herbicidal rate of 90% or more (almost completely withered)) | herbicidal effect grade, K: Italian ryegrass [4]: 3 (Herbicidal rate of 40% or more and less than 70%) | herbicidal effect rating, R: persian speedwell [5]: 0 (Herbicidal rate of 5% or less (almost no effect)) | herbicidal effect grade, Q: false cleavers [6]: 5 (Herbicidal rate of 90% or more (almost completely withered)) | herbicidal effect rating, P: chickweed [7]: 3 (Herbicidal rate of 40% or more and less than 70%) | herbicidal effect grade, F: southern crabgrass [8]: 3 (Herbicidal rate of 40% or more and less than 70%) | herbicidal effect rating, J: blackgrass [9]: 0 (Herbicidal rate of 5% or less (almost no effect)) | herbicidal effect grade, H: barnyard grass [10]: 3 (Herbicidal rate of 40% or more and less than 70%) | herbicidal effect grade, G: green foxtail [11]: 5 (Herbicidal rate of 90% or more (almost completely withered)) | herbicidal effect grade, I: wild oat [12]: 3 (Herbicidal rate of 40% or more and less than 70%) | herbicidal effect grade, R: persian speedwell [13]: 5 (Herbicidal rate of 90% or more (almost completely withered)) | herbicidal effect rating, Q: false cleavers [14]: 0 (Herbicidal rate of 5% or less (almost no effect)) | herbicidal effect grade, N: redroot pigweed [29]: 5 (Herbicidal rate of 90% or more (almost completely withered)) | herbicidal effect rating, N: redroot pigweed [15]: 0 (Herbicidal rate of 5% or less (almost no effect)) | herbicidal effect rating, O: lambsquarters [16]: 0 (Herbicidal rate of 5% or less (almost no effect)) | herbicidal effect rating, K: Italian ryegrass [17]: 0 (Herbicidal rate of 5% or less (almost no effect)) | herbicidal effect rating, M: velvetleaf [18]: 0 (Herbicidal rate of 5% or less (almost no effect)) | herbicidal effect rating, I: wild oat [19]: 3 (Herbicidal rate of 40% or more and less than 70%) | herbicidal effect grade, J: blackgrass [20]: 0 (Herbicidal rate of 5% or less (almost no effect)) | herbicidal effect rating, G: green foxtail [21]: 0 (Herbicidal rate of 5% or less (almost no effect)) | herbicidal effect rating, F: southern crabgrass [22]: 0 (Herbicidal rate of 5% or less (almost no effect)) | herbicidal effect on D (Chinese sprangletop), rating 0-5 [23]: 5 (Herbicidal rate of 90% or more (almost completely withered)) | herbicidal effect on E (rice flat sedge), rating 0-5 [24]: 4 (Herbicidal rate of 70% or more and less than 90%) | herbicidal effect grade, O: lambsquarters [25]: 5 (Herbicidal rate of 90% or more (almost completely withered)) | herbicidal effect grade, L: windgrass [27]: 5 (Herbicidal rate of 90% or more (almost completely withered))
